The test system of this assay is Mus musculus. Nature of the assay: Analgesic activity in chronic constriction injury-induced mechanical pain mouse model assessed as increase in paw withdrawal latency at 60 mg/kg measured after 1 to 7 hrs. The settings on record: time 1-7 hrs. Type of assay: functional, organism-based.

Activity calls are given as the source filed them. No cut-off for these calls is given here.

`NCC1(CC(=O)O)CCCCC1`: the result was Active.

Values taken from ChEMBL document CHEMBL5150017, “Mechanism of Action and Structure-Activity Relationship of α-Conotoxin Mr1.1 at the Human α9α10 Nicotinic Acetylcholine Receptor” (J Med Chem, 2022).
